Results reported in patent publication US20080234262A1 (Wyeth, priority 2007, published 2008).

Columns and labels:
[1] = target: PI3K (Homo sapiens, UniProt P42336); assay: Fluorescence polarization assay for PI3K; assay type: biochemical; conditions: PI3Kα; read-out: PI3Kα IC50;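 also: PI3K kinase reaction on PIP2 with ATP, 30-60 min, product sensed by GST-GRP with red probe in fluorescence polarization (mP), controls without enzyme and at zero time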
[2] = system: prostate line LNCap; assay: In vitro cell culture growth assay (MTS), LNCap; assay type: cell-based, human; conditions: LNCap cells, three days after drug treatment;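 also: viable cell density read by absorbance at 490 nm, growth expressed as percent of vehicle-treated cells on the same plate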
[3] = system: breast line MDA468; assay: In vitro cell culture growth assay (MTS), MDA468; assay type: cell-based, human; conditions: MDA468 cells, three days after drug treatment
Method in brief: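 Growth measured as percent of same-plate vehicle control by MTS metabolic dye conversion (A490). Breast MDA468 and prostate LNCap cells, plated a day ahead, were exposed to compounds for 3 days.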

Chain of PI3K (P42336 whole entry): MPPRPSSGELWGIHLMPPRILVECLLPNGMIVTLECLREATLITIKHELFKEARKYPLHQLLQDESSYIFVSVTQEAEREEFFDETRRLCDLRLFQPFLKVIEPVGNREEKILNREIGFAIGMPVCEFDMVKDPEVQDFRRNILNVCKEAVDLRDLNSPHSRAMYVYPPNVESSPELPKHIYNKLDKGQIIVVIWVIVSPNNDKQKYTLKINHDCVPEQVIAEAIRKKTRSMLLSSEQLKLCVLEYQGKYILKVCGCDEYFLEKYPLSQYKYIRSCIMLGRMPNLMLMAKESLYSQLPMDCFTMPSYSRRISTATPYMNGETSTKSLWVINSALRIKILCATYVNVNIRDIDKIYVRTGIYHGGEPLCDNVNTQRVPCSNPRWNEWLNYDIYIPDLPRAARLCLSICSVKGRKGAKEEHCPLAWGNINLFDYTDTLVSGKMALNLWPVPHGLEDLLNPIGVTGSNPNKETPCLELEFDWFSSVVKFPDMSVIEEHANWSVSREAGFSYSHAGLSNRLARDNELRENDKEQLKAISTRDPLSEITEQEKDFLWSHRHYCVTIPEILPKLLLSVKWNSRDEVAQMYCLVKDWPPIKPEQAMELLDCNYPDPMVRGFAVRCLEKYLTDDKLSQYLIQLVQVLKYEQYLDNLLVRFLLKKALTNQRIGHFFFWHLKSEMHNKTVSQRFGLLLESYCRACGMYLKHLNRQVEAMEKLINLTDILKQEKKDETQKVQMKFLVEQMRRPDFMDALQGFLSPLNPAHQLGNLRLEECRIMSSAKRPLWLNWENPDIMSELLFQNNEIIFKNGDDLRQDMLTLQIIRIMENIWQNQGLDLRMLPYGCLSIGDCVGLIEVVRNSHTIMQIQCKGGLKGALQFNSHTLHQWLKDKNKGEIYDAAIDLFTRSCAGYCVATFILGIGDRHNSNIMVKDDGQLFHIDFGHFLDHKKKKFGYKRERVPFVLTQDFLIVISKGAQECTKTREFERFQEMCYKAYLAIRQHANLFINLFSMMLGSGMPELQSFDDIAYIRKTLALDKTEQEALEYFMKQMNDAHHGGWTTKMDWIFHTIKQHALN
Chain of PI3K (P27986 whole entry partner): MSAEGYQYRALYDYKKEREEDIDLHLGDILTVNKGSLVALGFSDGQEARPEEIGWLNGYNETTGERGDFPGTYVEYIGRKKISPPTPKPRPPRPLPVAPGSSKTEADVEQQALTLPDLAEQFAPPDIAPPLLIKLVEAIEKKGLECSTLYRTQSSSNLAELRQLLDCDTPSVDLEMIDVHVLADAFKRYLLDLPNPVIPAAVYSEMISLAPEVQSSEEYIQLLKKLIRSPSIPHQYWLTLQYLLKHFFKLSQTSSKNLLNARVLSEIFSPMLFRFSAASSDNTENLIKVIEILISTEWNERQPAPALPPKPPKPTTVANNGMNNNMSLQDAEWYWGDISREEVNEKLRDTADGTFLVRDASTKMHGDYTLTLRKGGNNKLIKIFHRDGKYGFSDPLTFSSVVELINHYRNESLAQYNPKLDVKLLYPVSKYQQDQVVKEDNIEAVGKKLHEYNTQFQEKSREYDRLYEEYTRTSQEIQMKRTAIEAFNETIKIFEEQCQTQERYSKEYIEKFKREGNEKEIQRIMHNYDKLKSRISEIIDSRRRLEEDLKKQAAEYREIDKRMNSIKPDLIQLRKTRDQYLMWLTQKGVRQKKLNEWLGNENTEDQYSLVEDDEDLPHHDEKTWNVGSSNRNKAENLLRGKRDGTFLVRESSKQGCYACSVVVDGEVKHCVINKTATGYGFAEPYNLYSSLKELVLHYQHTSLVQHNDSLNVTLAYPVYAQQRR

| Compound | IC50 [1] | IC50 ([2]; Homo sapiens, LNCaP, 72 h) | IC50 [2] | IC50 ([3]; Homo sapiens, 72 h) | IC50 [3] |
| --- | --- | --- | --- | --- | --- |
| CCCOC(=O)N1CCC(n2ncc3c(N4CCOCC4)nc(-c4ccc(NC(=O)NC5CC5)cc4)nc32)CC1 [Compound 856, propyl 4-(6-{4-[(cyclopropylcarbamoyl)amino]phenyl}-4-morpholin-4-yl-1H-pyrazolo[3,4-d]pyrimidin-1-yl)piperidine-1-carboxylate] | 770 nM | 90 nM |  | 510 nM |  |
| CNC(=O)Nc1ccc(-c2nc(N3CCOCC3)c3cnn(C4CCN(C(=O)c5ccc(F)nc5)CC4)c3n2)cc1 [Example 421, 1-[4-(1-{1-[(6-fluoropyridin-3-yl)carbonyl]piperidin-4-yl}-4-morpholin-4-yl-1H-pyrazolo[3,4-d]pyrimidin-6-yl)phenyl]-3-methylurea] | 100 nM | 250 nM |  | 300 nM |  |
| O=C(NO)Nc1ccc(-c2nc(N3CCOCC3)c3cnn(-c4ccccc4)c3n2)cc1 [Compound 539, 1-hydroxy-3-[4-(4-morpholin-4-yl-1-phenyl-1H-pyrazolo[3,4-d]pyrimidin-6-yl)phenyl]urea] | 211 nM | 480 nM |  | 1100 nM |  |
| CCOC(=O)N1CCC(n2ncc3c(N4CCOCC4)nc(-c4ccc(NC(=O)NCCF)cc4)nc32)CC1 [Compound 819, ethyl 4-[6-(4-{[(2-fluoroethyl)carbamoyl]amino}phenyl)-4-morpholin-4-yl-1H-pyrazolo[3,4-d]pyrimidin-1-yl]piperidine-1-carboxylate] | 794 nM | < 27 nM |  | 70 nM |  |
| CCCNC(=O)Nc1ccc(-c2nc(N3CCOCC3)c3cnn(C4CCN(C(=O)OCCC)CC4)c3n2)cc1 [Compound 853, propyl 4-(4-morpholin-4-yl-6-{4-[(propylcarbamoyl)amino]phenyl}-1H-pyrazolo[3,4-d]pyrimidin-1-yl)piperidine-1-carboxylate] | 824 nM | 130 nM |  | 1000 nM |  |
| O=C(NCCF)Nc1ccc(-c2nc(N3CCOCC3)c3cnn(C4CCN(CC(F)(F)F)CC4)c3n2)cc1 [Compound 783, 1-(2-fluoroethyl)-3-(4-{4-morpholin-4-yl-1-[1-(2,2,2-trifluoroethyl)piperidin-4-yl]-1H-pyrazolo[3,4-d]pyrimidin-6-yl}phenyl)urea] | 1120 nM | 60 nM |  | 390 nM |  |
| CCOC(=O)N1CCC(n2ncc3c(N4CCOC[C@H]4C)nc(-c4ccc(NC(=O)Nc5ccncc5)cc4)nc32)CC1 [Compound 893, ethyl 4-(4-[(3R)-3-methylmorpholin-4-yl]-6-{4-[(pyridin-4-ylcarbamoyl)amino]phenyl}-1H-pyrazolo[3,4-d]pyrimidin-1-yl)piperidine-1-carboxylate] | 517 nM | 5 nM |  | 180 nM |  |
| O=C(c1ccc(Cl)cc1)N1CCC(n2ncc3c(N4CCOCC4)nc(-c4cccc(O)c4)nc32)CC1 [Compound 27] | 41 nM | 550 nM |  | 2400 nM |  |
| CNC(=O)Nc1ccc(-c2nc(N3CCOCC3)c3cnn(C4CCN(C(=O)c5ccc(C#N)cc5)CC4)c3n2)cc1 [Compound 614, 1-(4-{1-[1-(4-cyanobenzoyl)piperidin-4-yl]-4-morpholin-4-yl-1H-pyrazolo[3,4-d]pyrimidin-6-yl}phenyl)-3-methylurea] | 89 nM | 150 nM |  | 220 nM |  |
| CC(C)(C)OC(=O)N1CCC(n2ncc3c(N4CCOCC4)nc(-c4ccc(NC(=O)NCCO)cc4)nc32)CC1 [Compound 766, tert-butyl 4-[6-(4-{[(2-hydroxyethyl)carbamoyl]amino}phenyl)-4-morpholin-4-yl-1H-pyrazolo[3,4-d]pyrimidin-1-yl]piperidine-1-carboxylate] | 364 nM | 180 nM |  | 410 nM |  |
| CNC(=S)Nc1ccc(-c2nc(N3CCOCC3)c3cnn(C4CCN(C(=O)OC)CC4)c3n2)cc1 [Compound 742, methyl 4-[6-(4-{[(methylamino)carbonothioyl]amino}phenyl)-4-morpholin-4-yl-1H-pyrazolo[3,4-d]pyrimidin-1-yl]piperidine-1-carboxylate] | 153 nM | 50 nM |  | 220 nM |  |
| CC(C)C(=O)N1CCC(n2ncc3c(N4CCOCC4)nc(-c4ccc(NC(=O)NCCO)cc4)nc32)CC1 [Compound 823, 1-(2-hydroxyethyl)-3-{4-[1-(1-isobutyrylpiperidin-4-yl)-4-morpholin-4-yl-1H-pyrazolo[3,4-d]pyrimidin-6-yl]phenyl}urea] | 571 nM | 3500 nM |  | 320 nM |  |

The next lines start with results.

| IC50 [1] | IC50 ([2]; Homo sapiens, LNCaP, 72 h) | IC50 [2] | Compound | IC50 ([3]; Homo sapiens, 72 h) | IC50 [3] |
| --- | --- | --- | --- | --- | --- |
| 1920 nM | 5800 nM |  | CNC(=O)Nc1cccc(-c2nc(N3CCOCC3)c3cnn(C4CCN(Cc5ccccc5)CC4)c3n2)c1 [Compound 482, N-{3-[1-(1-benzylpiperidin-4-yl)-4-morpholin-4-yl-1H-pyrazolo[3,4-d]pyrimidin-6-yl]phenyl}-N′-methylurea] | 6800 nM |  |
| 149 nM | 2200 nM |  | CNC(=O)Nc1ccc(-c2nc(N3CCOCC3)c3cnn(C4CCN(C(=O)NC)CC4)c3n2)cc1 [Example 477, N-methyl-4-(6-{4-[(methylcarbamoyl)amino]phenyl}-4-morpholin-4-yl-1H-pyrazolo[3,4-d]pyrimidin-1-yl)piperidine-1-carboxamide] | 1800 nM |  |
| 56 nM | 27 nM |  | CNC(=O)Nc1ccc(-c2nc(N3CCOCC3)c3cnn(C4CCC(=O)CC4)c3n2)cc1 [Compound 567, 1-methyl-3-{4-[4-morpholin-4-yl-1-(4-oxocyclohexyl)-1H-pyrazolo[3,4-d]pyrimidin-6-yl]phenyl}urea] | 180 nM |  |
| 93 nM | 27 nM |  | CNC(=O)Nc1ccc(-c2nc(N3CCOCC3)c3cnn(C4CCN(C(=O)c5ccccc5C)CC4)c3n2)cc1 [Example 356, 1-methyl-3-(4-{1-[1-(2-methylbenzoyl)piperidin-4-yl]-4-morpholin-4-yl-1H-pyrazolo[3,4-d]pyrimidin-6-yl}phenyl)urea] | 100 nM |  |
| 82 nM | < 27 nM |  | CNC(=O)Nc1ccc(-c2nc(N3CCOCC3)c3cnn(C4CCN(C(=O)c5ccccc5OC)CC4)c3n2)cc1 [Compound 611, 1-(4-{1-[1-(2-methoxybenzoyl)piperidin-4-yl]-4-morpholin-4-yl-1H-pyrazolo[3,4-d]pyrimidin-6-yl}phenyl)-3-methylurea] | 330 nM |  |
| 25 nM |  | < 27 nM | CNC(=O)Nc1ccc(-c2nc(N3CCOCC3)c3cnn(C4CCN(Cc5ccc(C)cc5)CC4)c3n2)cc1 [Compound 675, 1-methyl-3-(4-{1-[1-(4-methylbenzyl)piperidin-4-yl]-4-morpholin-4-yl-1H-pyrazolo[3,4-d]pyrimidin-6-yl}phenyl)urea] |  | 110 nM |
| 34 nM | 27 nM |  | CNC(=O)Nc1ccc(-c2nc(N3CCOCC3)c3cnn(C4CCN(Cc5ccc(F)cc5)CC4)c3n2)cc1 [Compound 427, 1-(4-{1-[1-(4-fluorobenzyl)piperidin-4-yl]-4-morpholin-4-yl-1H-pyrazolo[3,4-d]pyrimidin-6-yl}phenyl)-3-methylurea] | 200 nM |  |
| 1270 nM | 2100 nM |  | c1ccc(CN2CCC(n3ncc4c(N5CCOCC5)nc(-c5ccc6cc[nH]c6c5)nc43)CC2)cc1 [Compound 49] | 5800 nM |  |
